Reference: the kinase profiling compilation of Christmann-Franck et al. (2016)

Legend:
PLK4 (human) = PLK4 (human) (UniProt O00444); assay: KINOMEscan competition binding; conditions: compound 10.0 µM
STK38L (human) = STK38L (human) (UniProt Q9Y2H1); assay: KINOMEscan competition binding; conditions: compound 10.0 µM
STK25 (human) = STK25 (human) (UniProt O00506); assay: KINOMEscan competition binding; conditions: compound 10.0 µM
CDK16 (human) = CDK16 (human) (UniProt Q00536); assay: KINOMEscan competition binding; conditions: compound 10.0 µM
MAPK9 (human) = MAPK9 (human) (UniProt P45984); assay: KINOMEscan competition binding; conditions: compound 10.0 µM
ANKK1 (human) = ANKK1 (human) (UniProt Q8NFD2); assay: KINOMEscan competition binding; conditions: compound 10.0 µM
TAOK3 (human) = TAOK3 (human) (UniProt Q9H2K8); assay: KINOMEscan competition binding; conditions: compound 10.0 µM
MAPK10 (human) = MAPK10 (human) (UniProt P53779); assay: KINOMEscan competition binding; conditions: compound 10.0 µM
Sequence of MAPK10 (human) (P53779 whole entry, looked up): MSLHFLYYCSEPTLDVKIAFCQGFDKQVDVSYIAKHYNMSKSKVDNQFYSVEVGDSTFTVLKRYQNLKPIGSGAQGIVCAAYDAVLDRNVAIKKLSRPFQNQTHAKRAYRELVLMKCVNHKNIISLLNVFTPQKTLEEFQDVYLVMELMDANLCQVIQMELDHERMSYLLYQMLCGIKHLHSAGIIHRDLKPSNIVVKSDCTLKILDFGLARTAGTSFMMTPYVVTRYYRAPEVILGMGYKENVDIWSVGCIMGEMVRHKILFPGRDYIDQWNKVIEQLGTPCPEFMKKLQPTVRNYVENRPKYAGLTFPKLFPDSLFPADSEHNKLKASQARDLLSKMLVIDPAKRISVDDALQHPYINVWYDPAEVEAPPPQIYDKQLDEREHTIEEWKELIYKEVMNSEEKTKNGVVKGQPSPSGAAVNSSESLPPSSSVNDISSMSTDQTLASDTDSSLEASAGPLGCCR

RPS6KA1 KD2 (human) = RPS6KA1 KD2 (human) (UniProt Q15418); assay: KINOMEscan competition binding; conditions: compound 10.0 µM
CAMK2G (human) = CAMK2G (human) (UniProt Q13555); assay: KINOMEscan competition binding; conditions: compound 10.0 µM
CAMK2A (human) = CAMK2A (human) (UniProt Q9UQM7); assay: KINOMEscan competition binding; conditions: compound 10.0 µM
BMPR1B (human) = BMPR1B (human) (UniProt O00238); assay: KINOMEscan competition binding; conditions: compound 10.0 µM
TLK1 (human) = TLK1 (human) (UniProt Q9UKI8); assay: KINOMEscan competition binding; conditions: compound 10.0 µM
MAPK14 (human) = MAPK14 (human) (UniProt Q16539); assay: KINOMEscan competition binding; conditions: compound 10.0 µM
AAK1 (human) = AAK1 (human) (UniProt Q2M2I8); assay: KINOMEscan competition binding; conditions: compound 10.0 µM
ZAP70 (human) = ZAP70 (human) (UniProt P43403); assay: KINOMEscan competition binding; conditions: compound 10.0 µM
MAPK8 (human) = MAPK8 (human) (UniProt P45983); assay: KINOMEscan competition binding; conditions: compound 10.0 µM
PAK7 (human) = PAK7 (human) (UniProt Q9P286); assay: KINOMEscan competition binding; conditions: compound 10.0 µM
SRPK1 (human) = SRPK1 (human) (UniProt Q96SB4); assay: KINOMEscan competition binding; conditions: compound 10.0 µM
LATS2 (human) = LATS2 (human) (UniProt Q9NRM7); assay: KINOMEscan competition binding; conditions: compound 10.0 µM
MAP2K6 (human) = MAP2K6 (human) (UniProt P52564); assay: KINOMEscan competition binding; conditions: compound 10.0 µM
TLK2 (human) = TLK2 (human) (UniProt Q86UE8); assay: KINOMEscan competition binding; conditions: compound 10.0 µM
EIF2AK2 (human) = EIF2AK2 (human) (UniProt P19525); assay: KINOMEscan competition binding; conditions: compound 10.0 µM
PIM1 (human) = PIM1 (human) (UniProt P11309); assay: KINOMEscan competition binding; conditions: compound 10.0 µM
Sequence of PIM1 (human) (P11309 whole entry, looked up): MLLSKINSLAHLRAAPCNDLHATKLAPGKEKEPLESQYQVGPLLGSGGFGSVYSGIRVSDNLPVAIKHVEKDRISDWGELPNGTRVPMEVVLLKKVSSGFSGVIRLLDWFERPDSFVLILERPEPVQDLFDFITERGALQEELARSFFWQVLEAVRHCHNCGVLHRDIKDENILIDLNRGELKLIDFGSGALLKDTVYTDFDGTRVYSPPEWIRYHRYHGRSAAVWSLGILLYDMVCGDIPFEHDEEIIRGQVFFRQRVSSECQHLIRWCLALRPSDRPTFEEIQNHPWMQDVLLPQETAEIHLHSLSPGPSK

GAK (human) = GAK (human) (UniProt O14976); assay: KINOMEscan competition binding; conditions: compound 10.0 µM
Sequence of GAK (human) (O14976 whole entry, looked up): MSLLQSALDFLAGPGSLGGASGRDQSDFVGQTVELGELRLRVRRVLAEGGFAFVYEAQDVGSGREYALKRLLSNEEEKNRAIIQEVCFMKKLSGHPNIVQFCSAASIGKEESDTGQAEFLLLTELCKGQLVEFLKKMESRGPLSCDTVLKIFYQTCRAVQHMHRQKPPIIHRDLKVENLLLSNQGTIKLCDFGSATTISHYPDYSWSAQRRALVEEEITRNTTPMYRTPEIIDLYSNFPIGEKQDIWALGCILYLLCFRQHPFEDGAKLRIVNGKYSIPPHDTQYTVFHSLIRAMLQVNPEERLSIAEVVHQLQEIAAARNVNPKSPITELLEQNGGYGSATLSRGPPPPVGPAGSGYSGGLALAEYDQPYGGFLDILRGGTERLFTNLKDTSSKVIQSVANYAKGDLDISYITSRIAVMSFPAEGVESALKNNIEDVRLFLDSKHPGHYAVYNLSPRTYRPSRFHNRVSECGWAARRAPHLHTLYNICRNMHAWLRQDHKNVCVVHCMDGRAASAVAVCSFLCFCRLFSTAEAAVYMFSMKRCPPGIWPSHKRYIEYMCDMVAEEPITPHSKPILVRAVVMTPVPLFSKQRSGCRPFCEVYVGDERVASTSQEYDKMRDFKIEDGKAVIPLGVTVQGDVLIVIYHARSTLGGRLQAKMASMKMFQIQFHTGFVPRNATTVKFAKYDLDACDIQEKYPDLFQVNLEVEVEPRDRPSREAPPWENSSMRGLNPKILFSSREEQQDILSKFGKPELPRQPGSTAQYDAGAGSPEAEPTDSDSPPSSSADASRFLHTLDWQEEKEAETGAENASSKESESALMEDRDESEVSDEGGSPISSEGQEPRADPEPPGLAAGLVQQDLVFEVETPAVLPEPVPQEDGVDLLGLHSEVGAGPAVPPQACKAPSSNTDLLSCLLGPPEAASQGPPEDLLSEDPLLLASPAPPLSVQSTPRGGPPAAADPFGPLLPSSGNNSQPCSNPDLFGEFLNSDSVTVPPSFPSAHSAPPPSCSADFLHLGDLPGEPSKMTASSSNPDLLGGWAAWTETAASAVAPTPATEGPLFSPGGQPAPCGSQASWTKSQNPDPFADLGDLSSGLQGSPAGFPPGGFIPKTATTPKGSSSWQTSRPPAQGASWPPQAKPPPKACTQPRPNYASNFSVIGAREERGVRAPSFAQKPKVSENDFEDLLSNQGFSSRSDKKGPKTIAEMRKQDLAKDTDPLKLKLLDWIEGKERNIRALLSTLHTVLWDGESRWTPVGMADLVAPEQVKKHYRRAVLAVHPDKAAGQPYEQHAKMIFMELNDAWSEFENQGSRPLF

RPS6KA6 KD2 (human) = RPS6KA6 KD2 (human) (UniProt Q9UK32); assay: KINOMEscan competition binding; conditions: compound 10.0 µM
RPS6KA2 KD2 (human) = RPS6KA2 KD2 (human) (UniProt Q15349); assay: KINOMEscan competition binding; conditions: compound 10.0 µM
PIK3CB (human) = PIK3CB (human) (UniProt P42338); assay: KINOMEscan competition binding; conditions: compound 10.0 µM
Sequence of PIK3CB (human) (P42338 whole entry, looked up): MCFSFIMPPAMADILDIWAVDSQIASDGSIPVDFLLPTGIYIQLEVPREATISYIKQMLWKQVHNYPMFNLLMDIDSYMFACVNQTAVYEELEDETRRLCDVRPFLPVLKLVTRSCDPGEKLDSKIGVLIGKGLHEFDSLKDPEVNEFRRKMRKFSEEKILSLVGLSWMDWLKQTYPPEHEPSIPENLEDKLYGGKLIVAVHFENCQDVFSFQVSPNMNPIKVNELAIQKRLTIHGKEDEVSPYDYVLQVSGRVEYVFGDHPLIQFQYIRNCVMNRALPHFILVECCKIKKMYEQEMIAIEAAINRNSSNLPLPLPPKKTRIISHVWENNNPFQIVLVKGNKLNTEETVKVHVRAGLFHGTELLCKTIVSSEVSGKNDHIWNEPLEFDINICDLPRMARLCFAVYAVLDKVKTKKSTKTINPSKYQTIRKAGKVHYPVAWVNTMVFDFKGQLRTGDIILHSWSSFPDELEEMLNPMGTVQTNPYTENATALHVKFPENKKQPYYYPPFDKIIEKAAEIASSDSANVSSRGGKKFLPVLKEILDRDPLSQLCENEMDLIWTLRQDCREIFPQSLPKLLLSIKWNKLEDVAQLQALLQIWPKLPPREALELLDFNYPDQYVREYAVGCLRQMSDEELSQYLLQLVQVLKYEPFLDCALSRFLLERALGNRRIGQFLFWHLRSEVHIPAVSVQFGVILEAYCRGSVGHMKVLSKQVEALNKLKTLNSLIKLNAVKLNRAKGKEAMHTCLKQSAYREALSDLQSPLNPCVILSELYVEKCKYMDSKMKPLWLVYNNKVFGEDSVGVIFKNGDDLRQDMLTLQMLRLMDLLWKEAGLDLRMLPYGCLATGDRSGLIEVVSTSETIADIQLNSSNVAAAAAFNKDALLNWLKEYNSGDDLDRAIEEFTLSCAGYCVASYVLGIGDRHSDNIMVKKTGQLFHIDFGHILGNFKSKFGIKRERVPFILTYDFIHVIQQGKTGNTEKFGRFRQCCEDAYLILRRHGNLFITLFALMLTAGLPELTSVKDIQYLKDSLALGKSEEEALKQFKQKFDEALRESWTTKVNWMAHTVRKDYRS

MINK1 (human) = MINK1 (human) (UniProt Q8N4C8); assay: KINOMEscan competition binding; conditions: compound 10.0 µM
TNIK (human) = TNIK (human) (UniProt Q9UKE5); assay: KINOMEscan competition binding; conditions: compound 10.0 µM
CSNK1G1 (human) = CSNK1G1 (human) (UniProt Q9HCP0); assay: KINOMEscan competition binding; conditions: compound 10.0 µM
ULK3 (human) = ULK3 (human) (UniProt Q6PHR2); assay: KINOMEscan competition binding; conditions: compound 10.0 µM
ULK1 (human) = ULK1 (human) (UniProt O75385); assay: KINOMEscan competition binding; conditions: compound 10.0 µM
TTK (human) [1] = target: TTK (human) (UniProt P33981); assay: SelectScreen, TR FRET
Sequence of TTK (human) (P33981 whole entry, looked up): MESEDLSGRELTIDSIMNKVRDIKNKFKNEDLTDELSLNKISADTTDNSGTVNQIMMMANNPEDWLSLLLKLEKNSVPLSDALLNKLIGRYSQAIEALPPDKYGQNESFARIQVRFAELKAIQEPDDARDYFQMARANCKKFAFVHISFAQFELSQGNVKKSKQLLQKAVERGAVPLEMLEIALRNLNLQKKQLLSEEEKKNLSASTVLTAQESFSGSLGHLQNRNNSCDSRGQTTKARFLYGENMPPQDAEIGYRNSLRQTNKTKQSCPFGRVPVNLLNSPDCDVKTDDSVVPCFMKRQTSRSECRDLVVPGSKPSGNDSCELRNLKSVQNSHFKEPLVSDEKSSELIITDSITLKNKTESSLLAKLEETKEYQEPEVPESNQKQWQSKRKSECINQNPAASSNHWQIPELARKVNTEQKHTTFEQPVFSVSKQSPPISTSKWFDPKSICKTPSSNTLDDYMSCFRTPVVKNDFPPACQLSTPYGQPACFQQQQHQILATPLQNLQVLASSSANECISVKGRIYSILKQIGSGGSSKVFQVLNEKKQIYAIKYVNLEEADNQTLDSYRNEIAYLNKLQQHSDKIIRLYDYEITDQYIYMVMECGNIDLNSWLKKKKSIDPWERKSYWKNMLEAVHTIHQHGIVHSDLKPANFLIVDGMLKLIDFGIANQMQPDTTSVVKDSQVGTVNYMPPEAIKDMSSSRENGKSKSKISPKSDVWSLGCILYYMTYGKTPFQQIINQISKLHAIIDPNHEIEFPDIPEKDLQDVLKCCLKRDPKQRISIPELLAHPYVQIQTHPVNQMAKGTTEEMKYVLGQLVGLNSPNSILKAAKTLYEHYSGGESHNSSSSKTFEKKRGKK

EPHA8 (human) = EPHA8 (human) (UniProt P29322); assay: KINOMEscan competition binding; conditions: compound 10.0 µM
TTK (human) [2] = target: TTK (human) (UniProt P33981); assay: KINOMEscan competition binding
PLK1 (human) = PLK1 (human) (UniProt P53350); assay: KINOMEscan competition binding; conditions: compound 10.0 µM
CDK11A (human) = CDK11A (human) (UniProt Q9UQ88); assay: KINOMEscan competition binding; conditions: compound 10.0 µM
AKT2 (human) = AKT2 (human) (UniProt P31751); assay: KINOMEscan competition binding; conditions: compound 10.0 µM

Sequence of PLK4 (human) (O00444 whole entry, looked up): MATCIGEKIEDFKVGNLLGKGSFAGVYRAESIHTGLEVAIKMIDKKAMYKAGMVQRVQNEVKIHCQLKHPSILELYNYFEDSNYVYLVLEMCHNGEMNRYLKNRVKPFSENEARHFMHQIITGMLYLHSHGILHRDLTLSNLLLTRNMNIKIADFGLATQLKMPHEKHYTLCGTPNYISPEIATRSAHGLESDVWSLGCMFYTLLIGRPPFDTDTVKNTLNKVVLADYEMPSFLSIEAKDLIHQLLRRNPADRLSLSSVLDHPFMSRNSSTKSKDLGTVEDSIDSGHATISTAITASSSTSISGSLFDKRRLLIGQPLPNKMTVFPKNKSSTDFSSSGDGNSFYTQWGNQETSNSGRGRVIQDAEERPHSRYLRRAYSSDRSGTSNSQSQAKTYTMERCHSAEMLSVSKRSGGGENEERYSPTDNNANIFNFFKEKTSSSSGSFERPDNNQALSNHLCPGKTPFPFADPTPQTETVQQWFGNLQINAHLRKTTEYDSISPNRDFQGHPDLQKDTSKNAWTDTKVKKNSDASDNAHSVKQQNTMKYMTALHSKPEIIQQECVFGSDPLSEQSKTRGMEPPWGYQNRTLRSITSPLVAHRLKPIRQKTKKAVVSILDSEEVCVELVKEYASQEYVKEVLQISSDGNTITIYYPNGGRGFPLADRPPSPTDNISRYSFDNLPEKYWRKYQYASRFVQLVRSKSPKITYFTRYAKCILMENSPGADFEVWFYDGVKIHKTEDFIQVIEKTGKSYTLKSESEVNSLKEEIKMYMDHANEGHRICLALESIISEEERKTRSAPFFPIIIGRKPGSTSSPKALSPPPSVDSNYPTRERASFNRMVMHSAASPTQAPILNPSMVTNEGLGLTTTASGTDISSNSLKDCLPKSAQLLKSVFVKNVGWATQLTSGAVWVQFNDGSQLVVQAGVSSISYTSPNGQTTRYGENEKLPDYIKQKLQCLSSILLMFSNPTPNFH

NS(=O)(=O)c1ccc(-c2ccc(/C=C3\SC(=S)N(CC(=O)O)C3=O)o2)cc1
kinase still bound, per cent of control (PLK4 (human)): 0.35%
kinase still bound, per cent of control (STK38L (human)): 19%
kinase still bound, per cent of control (STK25 (human)): 34%
kinase still bound, per cent of control (CDK16 (human)): 0.35%
kinase still bound, per cent of control (MAPK9 (human)): 21%
kinase still bound, per cent of control (ANKK1 (human)): 31%
kinase still bound, per cent of control (TAOK3 (human)): 34%
kinase still bound, per cent of control (MAPK10 (human)): 30%
kinase still bound, per cent of control (RPS6KA1 KD2 (human)): 29%
kinase still bound, per cent of control (CAMK2G (human)): 33%
kinase still bound, per cent of control (CAMK2A (human)): 34%
kinase still bound, per cent of control (BMPR1B (human)): 27%
kinase still bound, per cent of control (TLK1 (human)): 22%
kinase still bound, per cent of control (MAPK14 (human)): 20%
kinase still bound, per cent of control (AAK1 (human)): 34%
kinase still bound, per cent of control (ZAP70 (human)): 21%
kinase still bound, per cent of control (MAPK8 (human)): 22%
kinase still bound, per cent of control (PAK7 (human)): 22%
kinase still bound, per cent of control (SRPK1 (human)): 22%
kinase still bound, per cent of control (LATS2 (human)): 25%
kinase still bound, per cent of control (MAP2K6 (human)): 32%
kinase still bound, per cent of control (TLK2 (human)): 25%
kinase still bound, per cent of control (EIF2AK2 (human)): 32%
kinase still bound, per cent of control (PIM1 (human)): 33%
kinase still bound, per cent of control (GAK (human)): 20%
kinase still bound, per cent of control (RPS6KA6 KD2 (human)): 32%
kinase still bound, per cent of control (RPS6KA2 KD2 (human)): 22%
kinase still bound, per cent of control (PIK3CB (human)): 29%
kinase still bound, per cent of control (MINK1 (human)): 23%
kinase still bound, per cent of control (TNIK (human)): 32%
kinase still bound, per cent of control (CSNK1G1 (human)): 27%
kinase still bound, per cent of control (ULK3 (human)): 26%
kinase still bound, per cent of control (ULK1 (human)): 29%

CC(C)Oc1cc(N2CCC(O)CC2)ccc1Nc1ncc2c(n1)N(C1CCCC1)CCC(=O)N2C
IC50 (TTK (human) [1]): 605 nM
kinase still bound, per cent of control (EPHA8 (human)): 0%
Kd (TTK (human) [2]): 113 nM
kinase still bound, per cent of control (TTK (human) [2]; compound 10.0 µM): 2.4%
kinase still bound, per cent of control (GAK (human)): 29%
kinase still bound, per cent of control (PLK1 (human)): 14%

O=C1NC(=O)C(=Cc2ccc(-c3ccc(F)cc3O)o2)C(=O)N1
kinase still bound, per cent of control (CDK11A (human)): 31%
kinase still bound, per cent of control (AKT2 (human)): 17%
